The target of this assay is T1, HMG-CoA reductase (Rattus norvegicus, UniProt P51639).
T1 construct: 0.6 mg/ml of rat liver microsome fraction; from tissue; host or cells: rat liver (microsome fraction)
T1 sequence (P51639 1-887): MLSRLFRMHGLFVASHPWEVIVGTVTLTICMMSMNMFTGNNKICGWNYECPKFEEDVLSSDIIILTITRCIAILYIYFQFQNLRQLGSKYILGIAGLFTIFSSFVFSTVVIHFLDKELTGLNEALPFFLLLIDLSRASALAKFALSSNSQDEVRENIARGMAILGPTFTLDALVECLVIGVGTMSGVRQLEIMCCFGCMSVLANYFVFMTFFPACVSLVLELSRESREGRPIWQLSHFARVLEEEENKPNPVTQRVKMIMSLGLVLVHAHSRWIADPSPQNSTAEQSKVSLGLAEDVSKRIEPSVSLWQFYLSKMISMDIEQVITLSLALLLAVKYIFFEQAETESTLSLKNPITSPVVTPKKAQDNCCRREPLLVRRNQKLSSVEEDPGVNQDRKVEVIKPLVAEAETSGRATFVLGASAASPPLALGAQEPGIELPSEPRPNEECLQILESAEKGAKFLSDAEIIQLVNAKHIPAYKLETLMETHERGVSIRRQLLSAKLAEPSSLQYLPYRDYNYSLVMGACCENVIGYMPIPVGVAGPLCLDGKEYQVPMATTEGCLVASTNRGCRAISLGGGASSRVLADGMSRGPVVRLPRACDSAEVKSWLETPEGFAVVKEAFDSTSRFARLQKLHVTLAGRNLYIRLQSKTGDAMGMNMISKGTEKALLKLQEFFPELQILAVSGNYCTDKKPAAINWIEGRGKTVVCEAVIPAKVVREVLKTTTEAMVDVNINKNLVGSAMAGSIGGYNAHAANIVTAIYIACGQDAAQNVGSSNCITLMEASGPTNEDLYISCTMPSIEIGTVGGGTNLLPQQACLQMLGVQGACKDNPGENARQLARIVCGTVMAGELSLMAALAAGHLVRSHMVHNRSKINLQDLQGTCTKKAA
Kind of assay: HMG-CoA reductase inhibitory activity ([14C]HMG-CoA to [14C]mevalonic acid, rat liver microsome fraction). The conditions noted are these: for remaining activity at 0.1 µg/mL: 0.1 μg/ml; for IC50: rat liver microsome fraction, 37° C., 30 minutes, read-out: I50 (amount of sample necessary to inhibit the HMG-CoA reductase activity to 50%) (converted); for remaining activity at 10 µg/mL: 10 μg/ml. Type of assay: biochemical. How it is done:
The HMG-CoA reductase activity can be determined by using [^14 C] HMG-CoA as a substrate and measuring the resulting [^14 C] mevalonic acid (Kuroda and Endo, Biochem Biophys Acta, 486, 70-81), as described in detail in the following.
A reaction mixture contains 100 mM of potassium phosphate buffer (pH 7.4), 10 mM of EDTA, 10 mM of dithiothreitol, 10 mM of NADPH, 0.11 mM of DL-[3-^14 C] HMG-CoA (4.5 mCi/mmol), and 0.6 mg/ml of rat liver microsome fraction. The final volume of reaction mixture is 50 μl including 1 μl of a methanol solution of a test sample. A reaction is started by adding the substrate HMG-CoA, continued at 37° C. for 30 minutes, and terminated by adding 10 μl of 2N hydrochloric acid solution To this reaction mixture is added 20 μl of 100 mM [5-^3 H] mevaronic acid (22.7 μCi/mmol), and the reaction is carried out at 37° C. for a further 15 minutes. Using 40 μl of this reaction mixture as a carrier, 5 μl of 200 mM mevaronic acid (lactone type) is spotted on a silica gel plate, and after development by benzene/acetone (1:1) mixture, a spot of mevaronic acid is peeled off and suspended in a liquid scintillator to measure the radio activity thereof. The inhibitory activity is expressed by an amount of a sample necessary to inhibit the HMG-CoA reductase activity to 50% (I50 value).
(In general: Liver microsomes are vesicles of endoplasmic reticulum, rich in cytochrome P450 enzymes.)

The mark [1] stands for this setting: read-out: Enzyme activity (% relating to control).

Molecules are shown by their SMILES.

Take `CCC(C)C(=O)OC1CCC2C(F)(F)C23C=CC(C)C(CCC2CC(O)CC(=O)O2)C13` (stereo not drawn) [(1)]: the IC50 was 681 nM. In addition, the remaining activity at 0.1 µg/mL under setting [1] is 74%. In addition, under “1 μg/ml, read-out: Enzyme activity (% relating to control)”, the remaining activity at 1 µg/mL turned out to be 27%.

Take `CCC(C)C(=O)OC1CCC2CC23C=CC(C)C(CCC2CC(O)CC(=O)O2)C13` (stereo not drawn) [(4)]: the IC50 was 544 nM. For the same molecule, under setting [1], the remaining activity at 0.1 µg/mL is 63% and the remaining activity at 10 µg/mL came to 7.6%.

Turning to `CCC(C)C(=O)OC1CCC2C(Cl)(Cl)C23C=CC(C)C(CCC(O)CC(O)CC(N)=O)C13` (stereo not drawn) [(7)], the IC50 is over 2040 nM. In addition, under setting [1], the remaining activity at 0.1 µg/mL is 98% and the remaining activity at 10 µg/mL came to 30%.

Take `CCC(C)C(=O)OC1CCC2C(Cl)C23C=CC(C)C(CCC2CC(O)CC(=O)O2)C13` (stereo not drawn) [Compound (6)]: the IC50 was 683 nM. Also, under setting [1], the remaining activity at 0.1 µg/mL was found to be 71% and the remaining activity at 10 µg/mL came out at 4.7%.

Values taken from patent US5245050A, “Derivatives of physiologically active substance ML-236B and process for production thereof” (Tobishi Yakuhin Kogyo Kabushiki Kaisha, priority 1988, dated 1993).
